Reference: ChEMBL document CHEMBL3885881, “DrugMatrix”

Organism: Rattus norvegicus
Assay type: toxicity, organism-based, Sprague-Dawley
Conditions: in vivo, po, route oral GAVAGE, […]; for ABSOLUTE EOSINOPHIL / ABSOLUTE LYMPHOCYTE / ABSOLUTE MONOCYTE / ABSOLUTE SEGMENTED NEUTROPHIL / BASOPHIL / EOSINOPHIL / ERYTHROCYTE COUNT / HEMATOCRIT / HEMOGLOBIN / LEUKOCYTE COUNT / LYMPHOCYTE / MEAN CORPUSCULAR HEMOGLOBIN / MEAN CORPUSCULAR HEMOGLOBIN CONCENTRATION / MEAN CORPUSCULAR VOLUME / MONOCYTE / NEUTROPHIL / NUCLEATED RED BLOOD CELLS / PLATELET COUNT: tissue Blood; for ALANINE AMINOTRANSFERASE / ALBUMIN / ALKALINE PHOSPHATASE / ASPARTATE AMINOTRANSFERASE / BLOOD UREA NITROGEN / CARBON DIOXIDE / CHLORIDE / CHOLESTEROL / CREATINE PHOSPHOKINASE / CREATININE / GLUCOSE / LACTATE DEHYDROGENASE / LIPASE / PHOSPHORUS / POTASSIUM / SODIUM / TOTAL BILIRUBIN / TOTAL PROTEIN / URIC ACID: tissue Plasma
[1] = 30 mg/kg, 24 h, dose level Low, time 1 day
[2] = 60 mg/kg, 6 h, dose level High, time 0.25 day
[3] = 60 mg/kg, 24 h, dose level High, time 1 day

Description: DrugMatrix - Regimen: Single

S=C=Nc1cccc2ccccc12 [1-NAPHTHYLISOTHIOCYANATE]
ABSOLUTE EOSINOPHIL [1]: 0 CELLS/uL
ABSOLUTE LYMPHOCYTE [1]: 8784 CELLS/uL
ABSOLUTE MONOCYTE [1]: 359.5 CELLS/uL
ABSOLUTE SEGMENTED NEUTROPHIL [1]: 2189.83 CELLS/uL
BASOPHIL [1]: 0%
EOSINOPHIL [1]: 0%
ERYTHROCYTE COUNT [1]: 5.45 x10E6/uL
HEMATOCRIT [1]: 34.5%
HEMOGLOBIN [1]: 13.67 G/DL
LEUKOCYTE COUNT [1]: 11.33 x10E3/uL
LYMPHOCYTE [1]: 78.33%
MEAN CORPUSCULAR HEMOGLOBIN [1]: 25.1 pg
MEAN CORPUSCULAR HEMOGLOBIN CONCENTRATION [1]: 39.62 G/DL
MEAN CORPUSCULAR VOLUME [1]: 63.35 fL
MONOCYTE [1]: 2.83%
NEUTROPHIL [1]: 18.83%
NUCLEATED RED BLOOD CELLS [1]: 0 /100WBC
PLATELET COUNT [1]: 1092.83 x10E3/uL
ALANINE AMINOTRANSFERASE [1]: 122 u/L
ALBUMIN [1]: 3.92 G/DL
ALKALINE PHOSPHATASE [1]: 386.33 u/L
ASPARTATE AMINOTRANSFERASE [1]: 211 u/L
BLOOD UREA NITROGEN [1]: 11.67 mg/dL
CARBON DIOXIDE [1]: 35.83 mmol/L
CHLORIDE [1]: 97.33 MEQ/L
CHOLESTEROL [1]: 83.5 mg/dL
CREATINE PHOSPHOKINASE [1]: 327.33 u/L
CREATININE [1]: 0.3 mg/dL
GLUCOSE [1]: 139.33 mg/dL
LACTATE DEHYDROGENASE [1]: 171 u/L
LIPASE [1]: 9.33 u/L
PHOSPHORUS [1]: 9.87 mg/dL
POTASSIUM [1]: 4.44 MEQ/L
SODIUM [1]: 145.25 MEQ/L
TOTAL BILIRUBIN [1]: 1.02 mg/dL
TOTAL PROTEIN [1]: 6.05 G/DL
URIC ACID [1]: 0.5 mg/dL
ABSOLUTE EOSINOPHIL [2]: 98.5 CELLS/uL
ABSOLUTE LYMPHOCYTE [2]: 11852.33 CELLS/uL
ABSOLUTE MONOCYTE [2]: 375.83 CELLS/uL
ABSOLUTE SEGMENTED NEUTROPHIL [2]: 1556.67 CELLS/uL
BASOPHIL [2]: 0%
EOSINOPHIL [2]: 0.67%
ERYTHROCYTE COUNT [2]: 5.41 x10E6/uL
HEMATOCRIT [2]: 36.93%
HEMOGLOBIN [2]: 13.93 G/DL
LEUKOCYTE COUNT [2]: 13.88 x10E3/uL
LYMPHOCYTE [2]: 84.83%
MEAN CORPUSCULAR HEMOGLOBIN [2]: 25.75 pg
MEAN CORPUSCULAR HEMOGLOBIN CONCENTRATION [2]: 37.73 G/DL
MEAN CORPUSCULAR VOLUME [2]: 68.25 fL
MONOCYTE [2]: 2.67%
NEUTROPHIL [2]: 11.83%
NUCLEATED RED BLOOD CELLS [2]: 0 /100WBC
PLATELET COUNT [2]: 1029 x10E3/uL
ALANINE AMINOTRANSFERASE [2]: 53.6 u/L
ALBUMIN [2]: 4.36 G/DL
ALKALINE PHOSPHATASE [2]: 315.4 u/L
ASPARTATE AMINOTRANSFERASE [2]: 106 u/L
BLOOD UREA NITROGEN [2]: 9.8 mg/dL
CARBON DIOXIDE [2]: 17.2 mmol/L
CHLORIDE [2]: 104.6 MEQ/L
CHOLESTEROL [2]: 74.6 mg/dL
CREATINE PHOSPHOKINASE [2]: 475 u/L
CREATININE [2]: 0.21 mg/dL
GLUCOSE [2]: 258.8 mg/dL
LACTATE DEHYDROGENASE [2]: 229.4 u/L
LIPASE [2]: 11 u/L
PHOSPHORUS [2]: 16.5 mg/dL
POTASSIUM [2]: 5.82 MEQ/L
SODIUM [2]: 145.04 MEQ/L
TOTAL BILIRUBIN [2]: 0.22 mg/dL
TOTAL PROTEIN [2]: 5.82 G/DL
URIC ACID [2]: 2.54 mg/dL
ABSOLUTE EOSINOPHIL [3]: 30 CELLS/uL
ABSOLUTE LYMPHOCYTE [3]: 8567.5 CELLS/uL
ABSOLUTE MONOCYTE [3]: 316 CELLS/uL
ABSOLUTE SEGMENTED NEUTROPHIL [3]: 2953.17 CELLS/uL
BASOPHIL [3]: 0%
EOSINOPHIL [3]: 0.33%
ERYTHROCYTE COUNT [3]: 5.57 x10E6/uL
HEMATOCRIT [3]: 34.8%
HEMOGLOBIN [3]: 13.72 G/DL
LEUKOCYTE COUNT [3]: 11.87 x10E3/uL
LYMPHOCYTE [3]: 71.17%
MEAN CORPUSCULAR HEMOGLOBIN [3]: 24.67 pg
MEAN CORPUSCULAR HEMOGLOBIN CONCENTRATION [3]: 39.42 G/DL
MEAN CORPUSCULAR VOLUME [3]: 62.55 fL
MONOCYTE [3]: 2.67%
NEUTROPHIL [3]: 25.83%
NUCLEATED RED BLOOD CELLS [3]: 0 /100WBC
PLATELET COUNT [3]: 1101.5 x10E3/uL
ALANINE AMINOTRANSFERASE [3]: 142.33 u/L
ALBUMIN [3]: 3.88 G/DL
ALKALINE PHOSPHATASE [3]: 513.83 u/L
ASPARTATE AMINOTRANSFERASE [3]: 288 u/L
BLOOD UREA NITROGEN [3]: 11.17 mg/dL
CARBON DIOXIDE [3]: 34.17 mmol/L
CHLORIDE [3]: 95.83 MEQ/L
CHOLESTEROL [3]: 118 mg/dL
CREATINE PHOSPHOKINASE [3]: 254.17 u/L
CREATININE [3]: 0.34 mg/dL
GLUCOSE [3]: 133.33 mg/dL
LACTATE DEHYDROGENASE [3]: 241.83 u/L
LIPASE [3]: 80.33 u/L
PHOSPHORUS [3]: 10.95 mg/dL
POTASSIUM [3]: 3.66 MEQ/L
SODIUM [3]: 144.63 MEQ/L
TOTAL BILIRUBIN [3]: 2.2 mg/dL
TOTAL PROTEIN [3]: 6.13 G/DL
URIC ACID [3]: 0.45 mg/dL
